Earlier results as cited in US20200068939A1, “Nutritional compositions to increase and sustain blood ketone levels” (JHO Intellectual Property Holdings LLC, priority 2018, published 2020).

Assays:
[1] = acute ingestion, 15 min to 6 hr
[2] = not given; remark: listed apart in the source

SMILES	stimulation of ketone production (2.5 mg/kg given at breakfast)	plasma free fatty acids (2.5, 5.0 mg/kg given at breakfast)	bHB in short-term nutritional ketosis [1] [mM]	blood βHB concentration at the start of the OGTT ([2]; 482 mg/kg 30 min before glucose bolus) [mM]	blood βHB concentration at the end of the OGTT ([2]; 482 mg/kg 30 min before glucose bolus, end of 2 h test) [mM]	reduction in 2 h AUC for serum FFAs ([2]; 482 mg/kg, 2 h) [%]	reduction of plasma glucose AUC ([2]; 482 mg/kg, over the 2 h period) [%]
Cn1c(=O)c2c(ncn2C)n(C)c1=O [Caffeine]	+88%	raised plasma free fatty acids					
C[C@@H](O)CCOC(=O)C[C@@H](C)O [KME, (R)-3-hydroxybutyl (R)-3-hydroxybutyrate]			> 1	~3	~1.5	44	16
